Paper PMC7918049, “Juncaceae Species as Promising Sources of Phenanthrenes: Antiproliferative Compounds from Juncus maritimus Lam” (Molecules, 2021)
Where two headings read alike, the source gives them in different places.

How the values were obtained:
[1] = tested on: HeLa human cervix carcinoma cells; assay: MTT antiproliferative assay, HeLa; assay type: cell-based; conditions: 72 h, mean of four parallel experiments, read-out: IC50 (µM) ± SD HeLa
Procedure: (§1) Breast cancer cell line MCF-7 (ATCC®® HTB-22) and the drug-resistant subline of the human breast cancer MCF-7 (ECACC 86012803; KCR) were purchased from LGC Promochem (Teddington, UK). Both cell lines were cultured in Eagle’s Minimal Essential Medium (EMEM, containing 4.5 g/L glucose) supplemented with a non-essential amino acid mixture, a selection of vitamins, and 10% heat-inactivated fetal bovine serum. In every third passage, 0.56 µg/mL doxorubicin was added to the medium in order to maintain the ABCB1 (P-glycoprotein) expression in KCR cells. A2780 human ovarian cancer cell line (ECACC European Collection of Authentical Cell Culture, Sigma Cat. no. 93112519) and the cisplatin-resistant human ovarian cancer cell line A2780cis (ECACC European Collection of Authentical Cell Culture, Sigma Cat. no. 93112517) were purchased from Merck KGaA (Darmstadt, Germany). The human ovarian cancer cell lines were cultured in RPMI 1640 medium supplemented with 10% heat-inactivated fetal bovine serum. The RPMI 1640 medium of the cisplatin-resistant cell line A2780 was supplemented with 1 µM cisplatin. HeLa (ATCC® CCL-2™) human cervix carcinoma, HTB-26 breast adenocarcinoma, T-47D (ATCC® HTB-133™) ductal carcinoma, and MRC-5 human embryonal lung fibroblast cell lines (ATCC® CCL-171) were purchased from LGC Promochem (Teddington, UK). The cells were cultured in Eagle’s Minimal Essential Medium (EMEM, containing 4.5 g/L glucose) supplemented with a non-essential amino acid mixture, a selection of vitamins, and 10% heat-inactivated fetal bovine serum. HTB-26 cell line was cultured in RPMI 1640 medium supplemented with 10% heat-inactivated fetal bovine serum. T-47D cells were cultured in RPMI 1640 medium supplemented with 10% heat-inactivated fetal bovine serum, 2 mM L-glutamine, 1 mM Na-pyruvate, and 100 mM Hepes. All of the cells were incubated at 37 °C, in a 5% CO2, 95% air atmosphere.
(§2) The antiproliferative effect of the compounds was determined on the human breast (MCF-7, KCR, T-47D, HTB-26), cervical (HeLa), and ovarian (A2780, A2780cis) cancer cells, and on MRC-5 (human embryonic lung fibroblast) cell line. The adherent cells were cultured in 96-well flat-bottomed microtiter plates, using EMEM supplemented with 10% heat-inactivated fetal bovine serum or RPMI 1640 supplemented with 10% heat-inactivated fetal bovine serum, respectively. The density of the cells was adjusted to 6 × 10^3 cells in 100 μL per well, the cells were seeded for 24 h at 37 °C, 5% CO2, then the medium was removed from the plates and fresh medium (100 μL per well) was added to the cells. The effects of increasing concentrations of compounds on cell proliferation were tested in 96-well flat-bottomed microtiter plates. The compounds were diluted in the appropriate medium, the dilutions of compounds were performed in separate plates and then added to the cells. The starting concentration of the compounds was 100 μM, and two-fold serial dilution was performed (concentration range: 100-0.19 μM). The culture plates were incubated at 37 °C for 72 h; at the end of the incubation period, 20 μL of MTT (thiazolyl blue tetrazolium bromide, Sigma) solution (from a stock solution of 5 mg/mL) was added to each well. After incubation at 37 °C for 4 h, 100 μL of sodium dodecyl sulfate (SDS) (Sigma) solution (10% in 0.01 M HCI) were added to each well and the plates were further incubated at 37 °C overnight. Cell growth was determined by measuring the optical density (OD) at 540/630 nm with Multiscan EX ELISA reader (Thermo Labsystems, Cheshire, WA, USA). Mean IC50 values were obtained by best fitting the dose-dependent inhibition curves in GraphPadPrism5 program (GraphPad Software version 5.00 for Windows, San Diego, CA, USA) from four parallel experiments for each cell line. Results are expressed in terms of IC50, defined as the inhibitory dose that reduces the proliferation of the cells exposed to the tested compounds by 50% [14].

[2] = tested on: HTB-26 breast adenocarcinoma cells; assay: MTT antiproliferative assay, HTB-26; assay type: cell-based, human; conditions: HTB-26, mean of four parallel experiments, read-out: IC50 (µM) ± SD HTB-26
Procedure: as §1, §2

[3] = tested on: T-47D ductal carcinoma cells; assay: MTT antiproliferative assay, T-47D; assay type: cell-based, human; conditions: 72 h, mean of four parallel experiments, read-out: IC50 (µM) ± SD T-47D
Procedure: as §1, §2

[4] = tested on: A2780 human ovarian cancer cell line; assay: MTT antiproliferative assay, A2780; assay type: cell-based; conditions: 72 h, A2780, mean of four parallel experiments, read-out: IC50 (µM) ± SD A2780
Procedure: as §1, §2

[5] = tested on: cisplatin-resistant human ovarian cancer cell line A2780cis; assay: MTT antiproliferative assay, A2780cis; assay type: cell-based; conditions: 72 h, mean of four parallel experiments, read-out: IC50 (µM) ± SD A2780cis
Procedure: as §1, §2

[6] = tested on: Breast cancer cell line MCF-7; assay: MTT antiproliferative assay, MCF-7; assay type: cell-based, human; conditions: MCF-7, mean of four parallel experiments, read-out: IC50 (µM) ± SD MCF-7
Procedure: as §1, §2

[7] = tested on: KCR, drug-resistant subline of the human breast cancer MCF-7; assay: MTT antiproliferative assay, KCR; assay type: cell-based; conditions: mean of four parallel experiments, read-out: IC50 (µM) ± SD KCR
Procedure: as §1, §2

[8] = tested on: MRC-5 human embryonal lung fibroblast cell line; assay: MTT antiproliferative assay, MRC-5 normal cells; assay type: cell-based; conditions: for IC50: MRC-5 normal fibroblasts, mean of four parallel experiments, read-out: IC50 (µM) ± SD MRC-5
Procedure: as §1, §2

[9] = tested on: HeLa, HTB-26, T-47D, A2780, A2780cis, MCF-7, KCR and MRC-5 cell lines; assay: MTT antiproliferative assay, all cell lines investigated (overall statements); assay type: cell-based, human; conditions: 72 h, all cell lines tested
Procedure: Breast cancer cell line MCF-7 (ATCC®® HTB-22) and the drug-resistant subline of the human breast cancer MCF-7 (ECACC 86012803; KCR) were purchased from LGC Promochem (Teddington, UK). Both cell lines were cultured in Eagle’s Minimal Essential Medium (EMEM, containing 4.5 g/L glucose) supplemented with a non-essential amino acid mixture, a selection of vitamins, and 10% heat-inactivated fetal bovine serum. In every third passage, 0.56 µg/mL doxorubicin was added to the medium in order to maintain the ABCB1 (P-glycoprotein) expression in KCR cells. A2780 human ovarian cancer cell line (ECACC European Collection of Authentical Cell Culture, Sigma Cat. no. 93112519) and the cisplatin-resistant human ovarian cancer cell line A2780cis (ECACC European Collection of Authentical Cell Culture, Sigma Cat. no. 93112517) were purchased from Merck KGaA (Darmstadt, Germany). The human ovarian cancer cell lines were cultured in RPMI 1640 medium supplemented with 10% heat-inactivated fetal bovine serum. […]
The antiproliferative effect of the compounds was determined on the human breast (MCF-7, KCR, T-47D, HTB-26), cervical (HeLa), and ovarian (A2780, A2780cis) cancer cells, and on MRC-5 (human embryonic lung fibroblast) cell line. […] Cell growth was determined by measuring the optical density (OD) at 540/630 nm with Multiscan EX ELISA reader (Thermo Labsystems, Cheshire, WA, USA). […]

[10] = tested on: Zymoseptoria tritici; parameters: method as in PMID 28484977; conditions: cited from earlier work
[11] = tested on: hepatitis C (HCV) replication; parameters: method as in PMID 30842319; conditions: cited from earlier work

Structure (SMILES)	IC50 ([1]; Homo sapiens) [µM]	IC50 ([2]; Homo sapiens, HTB26, 72 h) [µM]	IC50 ([3]; Homo sapiens, T47D) [µM]	IC50 ([4]; Homo sapiens) [µM]	IC50 ([5]; Homo sapiens) [µM]	IC50 ([6]; Homo sapiens, MCF7, 72 h) [µM]	IC50 ([7]; Homo sapiens, MCF7, 72 h) [µM]	selectivity: effect on MRC-5 normal lung fibroblasts compared to cancer cell lines (in words) ([8]; 72 h, MRC-5 versus cancer cell lines)	IC50 ([8]; Homo sapiens, MRC5, 72 h) [µM]	IC50 [5] [µM]	IC50 ([6]; 72 h) [µM]	antiproliferative activity across the cell lines investigated (in words) [9]	in vitro antifungal activity against Zymoseptoria tritici (in words) [10]	IC50 [1] [µM]	IC50 ([2]; 72 h) [µM]	IC50 [3] [µM]	IC50 [4] [µM]	IC50 ([7]; 72 h) [µM]	IC50 ([8]; 72 h) [µM]	inhibition of hepatitis C (HCV) replication (in words) [11]
C=Cc1cc(O)c(CO)c2c1-c1ccc(O)c(C)c1CC2 [Compound 1, maritin A]	57 ± 1.3	48.7 ± 1.6	12.8 ± 0.9	21.5 ± 0.4	40.1 ± 0.4	34.7 ± 3	57.6 ± 0.7	less antiproliferative effect on MRC-5 normal lung fibroblasts compared to the other cancer cell lines	75.4 ± 1.8											
C=Cc1c(C)ccc2c1CCc1c-2ccc(O)c1C [Compound 2, maritin B]	11 ± 0.9	> 100	> 100	> 100	> 100	97 ± 0.3	> 100		> 100											
Cc1c(O)cc2ccc3c(C)c(O)cc4c3c2c1C(O)C4 (stereo not drawn) [Compound 3, maritin C]	43.2 ± 0.7	35.9 ± 1.5	17 ± 0.6	23.7 ± 0.1	< 20		> 100		15 ± 0.2	18.6 ± 0.1										
N.N.[Cl][Pt][Cl] [cisplatin, reference compound]										7.3 ± 0.2	0.9			2.3 ± 0.1	20.1 ± 2.3	5.9 ± 0.1	3.6 ± 0.3	6.5 ± 0.3	0.6	
C=Cc1c(C)c(O)cc2ccc3c(C)c(O)ccc3c12 [dehydrojuncusol]																				novel inhibitor of hepatitis C (HCV) replication

More lines, main results first:

IC50 ([1]; Homo sapiens) [µM]	IC50 ([2]; Homo sapiens, HTB26, 72 h) [µM]	IC50 ([3]; Homo sapiens, T47D) [µM]	IC50 ([4]; Homo sapiens) [µM]	IC50 ([5]; Homo sapiens) [µM]	IC50 ([6]; Homo sapiens, MCF7, 72 h) [µM]	IC50 ([7]; Homo sapiens, MCF7, 72 h) [µM]	Structure (SMILES)	selectivity: effect on MRC-5 normal lung fibroblasts compared to cancer cell lines (in words) ([8]; 72 h, MRC-5 versus cancer cell lines)	IC50 ([8]; Homo sapiens, MRC5, 72 h) [µM]	IC50 [5] [µM]	IC50 ([6]; 72 h) [µM]	antiproliferative activity across the cell lines investigated (in words) [9]	in vitro antifungal activity against Zymoseptoria tritici (in words) [10]	IC50 [1] [µM]	IC50 ([2]; 72 h) [µM]	IC50 [3] [µM]	IC50 [4] [µM]	IC50 ([7]; 72 h) [µM]	IC50 ([8]; 72 h) [µM]	inhibition of hepatitis C (HCV) replication (in words) [11]
22.5 ± 1.2	25.1 ± 0.3	9.1 ± 0.4	14.1 ± 1.3	< 20	< 20	16.2 ± 0.6	C=Cc1cc(O)cc2c1-c1ccc(Oc3cc4c(c(C)c3O)CCc3cc(O)cc(C=C)c3-4)c(C)c1CC2 [Compound 4, maritin D]		17.1 ± 3.1	13.3 ± 0.1	14.2 ± 0.3	substantial antiproliferative activity against all cell lines investigated								
0.5		25 ± 0.4					C=Cc1c(C)c(O)cc2c1-c1ccc(O)c(C)c1CC2 [Compound 5, juncusol]													
2.3 ± 0.7	57 ± 2.73						C=Cc1cc(O)cc2c1-c1ccc(O)c(C)c1CC2 [Compound 6, effusol]						significant in vitro antifungal activity							
24.7 ± 0.5	85.3 ± 4.5	26.6 ± 1.1	30 ± 3.6	32.3 ± 2.3	38 ± 2	70.6 ± 3.1	Cc1c(O)ccc2c1CCc1cc(O)cc(C=O)c1-2 [Compound 7, 2,7-dihydroxy-1-methyl-5-aldehyde-9,10-dihydrophenanthrene]		71.1 ± 1.3											
> 100	> 100	57 ± 7.1	> 100	> 100	69.5 ± 1.7	> 100	C=Cc1cc(O)c(C)c2c1-c1ccc(O)c(C)c1CC2 [Compound 8, 2,7-dihydroxy-1,8-dimethyl-5-vinyl-9,10-dihydrophenanthrene]		> 100											
76.7 ± 1.8	75 ± 5	41.4 ± 5.8	43.5 ± 1.1	52.8 ± 2.4	45.7 ± 2.4	68.4 ± 2.5	C=Cc1cc(C)cc2c1-c1ccc(O)c(C)c1CC2 [Compound 9, juncunol]		78.4 ± 3.7											
25.2 ± 0.6	24.7 ± 2.1	6.2 ± 0.1	25.6 ± 2.4	< 20	< 20	19.6 ± 0.9	C=Cc1cc(O)cc2c1-c1cc(-c3cc4c(c(C)c3O)CCc3cc(O)cc(C=C)c3-4)c(O)c(C)c1CC2 [Compound 11, effususin A]		20.1 ± 1.6	16.3 ± 0.3		substantial antiproliferative activity against all cell lines investigated								
